From patent US20250127913A1, “BIFUNCTIONAL FOLATE RECEPTOR BINDING COMPOUNDS” (LYCIA THERAPEUTICS, INC., priority 2021, published 2025)

What was measured:
[1] = test system: THP-1 cells overexpressing FOLR2; experiment: LYTAC mediated uptake of TNFα-Alexa647 in THP-1 WT / FOLR2 overexpressing cells (ΔMFI); format: cell-based; parameters: New-uptake 100 nM-% Example 46 / New-uptake 10 nm-% Example 46: unit not given here; settings: for uptake of TNFα compared the no compound control (DMSO): 300 nM-0.137 nM
Procedure: Hetero-bifunctional small molecule LYTACs consisting of a TNFα binding moiety, linker and folate receptor binding moiety were tested to determine if folate receptor can internalize TNFα. THP-1 cells overexpressing FOLR2 were generated by stable transduction with lentivirus encoding FOLR2-IRES-GFP. THP-1 WT and FOLR2 overexpressing cells were maintained in RPMI (Gibco #61870143) with 10% v/v FBS (VWR #89510-188) with 2 mM L-alanyl-L-glutamine dipeptide, 100 units/ml penicillin and 100 μg/ml streptomycin (Gibco #27016021). Stable FOLR2 over-expression cells were mixed at a 50:50 ratio with WT THP-1 cells and seeded in a 96 well plate at 50,000 cells in 100 μl folate-free RPMI (Gibco […]) with 10% v/v FBS, 2 mM L-alanyl-L-glutamine dipeptide, 100 units/ml penicillin and 100 μg/ml streptomycin. In a separate 96 well plate, TNFα/folate hetero-bifunctional small molecules were mixed with unmodified TNFα conjugated with Alexa647 by non-specific lysine chemistry. Small molecule LYTACs at a concentration of 600 nM (2× final concentration) in 100 μl folate-free RPMI+10% FBS were incubated at room temperature for 30 mins. The immune complex was serially diluted 3-fold to produce a dose response range from 300 nM-0.137 nM (final concentration). The TNFα/LYTAC complex mixture was transferred to the plate containing a 50:50 mixture of THP1 WT and FOLR2 over expressing cells and incubated for 2 h at 37° C. with 5% C02. Uptake in WT and FOLR2 overexpressing cells was evaluated by flow cytometry by comparing the median fluorescence intensity of […] in the GFP negative (WT) and GFP positive (FOLR2) populations and was quantified as the difference between the mean fluorescence intensities in the APC channel for the GFP positive and GFP negative populations (ΔMFI).

[2] = molecular target: TNFα (Homo sapiens (Human), UniProt P01375); experiment: TNFα binding assay (time-resolved FRET, biotinylated TNFα); settings: 1 nM biotinylated TNFα, 80 nM probe, 16 hr incubation; read-out: TNF-HTRF-biotin
Sequence of TNFα (P01375 77-233): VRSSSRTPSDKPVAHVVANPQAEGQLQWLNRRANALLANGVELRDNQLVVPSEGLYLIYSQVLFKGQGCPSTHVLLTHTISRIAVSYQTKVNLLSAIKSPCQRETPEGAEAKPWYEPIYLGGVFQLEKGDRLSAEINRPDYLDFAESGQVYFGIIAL
How it was run: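 Time-resolved FRET displacement of 80 nM acceptor probe from 1 nM biotinylated TNFα with 0.5 nM streptavidin-Tb in 20 mM Hepes pH 7.5, 10 mM MgCl2, 0.015% Tween-20, 0.05 mg/ml BSA, 2% DMSO. Read (ex 340, em 490/520 nm) after 16 hr. Duplicate dose responses normalized to DMSO and 100 nM reference inhibitor; IC50 by 4-parameter fit.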

[3] = molecular target: T1, folate receptor beta (Homo sapiens (Human), UniProt P14207); experiment: Folate receptor binding assay (fluorescence polarization); settings: 2.5 nM folate receptor beta, 2 nM FR-Cy probe, 2 hr incubation; read-out: FOLR2-FP
T1 sequence (P14207 17-255): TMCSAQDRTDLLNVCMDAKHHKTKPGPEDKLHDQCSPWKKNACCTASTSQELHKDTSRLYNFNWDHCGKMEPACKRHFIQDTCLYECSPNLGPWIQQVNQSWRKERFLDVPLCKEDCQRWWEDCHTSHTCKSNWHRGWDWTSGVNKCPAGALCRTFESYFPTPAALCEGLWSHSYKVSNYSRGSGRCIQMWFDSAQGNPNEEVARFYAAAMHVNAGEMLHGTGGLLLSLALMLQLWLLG
How it was run: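 Fluorescence polarization competition with 2 nM folate–Cy5 probe and 2.5 nM receptor in 20 mM Hepes pH 7.5, 250 mM NaCl, Tween-20, 1% DMSO; 3-fold dilutions, 2 h incubation, ex 620/em 688 nm. Duplicates normalized to DMSO (high) and 1 μM folic acid (low); IC50 from 4-parameter fit.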

[4] = molecular target: T1, folate receptor beta; experiment: Folate receptor SPR assay (biotinylated folate receptor beta on streptavidin chip); format: binding; settings: for Rmax: biotinylated folate receptor beta on streptavidin chip; for kd / Kd / kon: multi-cycle kinetics, 25° C., 1:1 model; for Kd: read-out: FOLR2Biotin - SPR Kd; for kon: pH 7.5, read-out: ka
How it was run: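 Biotinylated receptor captured on a streptavidin SPR chip; multi-cycle kinetics at 25 °C with 8 compound concentrations (2-fold dilutions) in HEPES pH 7.5, 150 mM NaCl, 0.05% Tween 20, 2% DMSO. Association 120 s, dissociation 600 s; binding parameters from 1:1 model fit.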

[5] = molecular target: TNFα and streptavidin immobilized FOL2R (Homo sapiens (Human), UniProt P01375+P14207); experiment: Ternary complex SPR assay; format: binding; settings: 10 nM compound, max response normalized to expected response; for TC 150 nM- tagless TNF Normalized: 150 nM untagged TNF; for TC 300 nM- tagless TNF Normalized: 300 nM untagged TNF
Sequence of TNFα and streptavidin immobilized FOL2R (P14207 17-230): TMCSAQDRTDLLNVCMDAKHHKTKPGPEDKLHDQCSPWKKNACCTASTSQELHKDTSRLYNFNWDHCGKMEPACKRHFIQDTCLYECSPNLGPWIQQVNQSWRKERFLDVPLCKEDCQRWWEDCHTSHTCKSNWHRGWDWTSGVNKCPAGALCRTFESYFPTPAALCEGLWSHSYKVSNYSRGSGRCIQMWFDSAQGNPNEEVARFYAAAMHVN
Sequence of TNFα and streptavidin immobilized FOL2R (P01375 77-233): as the sequence (P01375 77-233) above
How it was run: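 Biotinylated folate receptor beta captured at ~1800 RU on a streptavidin chip; untagged TNF preincubated 6 hr at 25° C with 10 nM compound in HEPES pH 7.5, 150 mM NaCl, 0.05% Tween 20, 2% DMSO, then injected (110 s association, 600 s dissociation). Maximum response normalized to maximum expected response per compound.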

[6] = molecular target: FOLR2 (Homo sapiens (Human), UniProt P14207); experiment: SPR binding kinetics of compounds to folate receptor (FOLR2 immobilized on CM5 chip)
Sequence of FOLR2 (P14207 17-255): as the sequence (P14207 17-255) above
Procedure: A Biacore 8K+ was used to measure the association and dissociation rates of example compounds to FOLR2 (Acro Biosystems, Cat: F02-H5223-100 μg). Briefly, FOLR2 was reconstituted according to the manufacture's instructions to 200 μg/mL. Both the active and reference surfaces of a Cytiva CM5 Series S Sensor Chip were activated with a 1:1 mixture of 400 mM EDC and 100 mM NHS for 420 s at 10 μL/min. 25 μg/mL FOLR2 diluted in Sodium Acetate pH 5.5 was injected on the active channel (Flow Cell 2) for 420 s at 10p/min. Both the reference and active surfaces were then capped with 1M ethanolamine, pH 8.5 for 420 s, achieving an immobilization level of ˜4200 RU. Example compounds were serially diluted 1:1 in running buffer (10 mM HEPES, 150 mM NaCl, 0.05% T20, pH 7.5, 2% DMSO) from 100 nM to 3.125 nM and flowed over the active and reference surfaces for 120 s, and then allowed to dissociate in running buffer for 600 s, at 30 uL/min. The FOLR2 immobilized active surface and the reference surface were regenerated with a 30 s pulse of Sodium Acetate pH 5.5 at 30 μL/min. Sensorgrams were solvent corrected, double-referenced, and the data fitted and analyzed in Biacore Insight Evaluation Software Version 3.0.11.15423.

[7] = molecular target: TNFα trimer (Homo sapiens, UniProt P01375); experiment: SPR binding kinetics of compounds to TNFα trimer; settings: class symbols
Sequence of TNFα trimer (P01375 77-233 limits assumed): as the sequence (P01375 77-233) above
Procedure: Streptavidin 100 μg/mL Streptavidin (Invitrogen Cat #: 434302) diluted in 10 mM sodium acetate, pH 4.5) was immobilized to both the reference and active surfaces as described in Example 51. The surfaces were conditioned with three injections of running Buffer (10 mM HEPES, 150 mMNaCl, 0.05% T20, pH 7.5, 2% DMSO) at a flow rate of 10 μL/min, Contact time: 60 s. Flow rate: 10 μL/min. The active surface was treated with biotinylated linked TNFα trimer 20 μg/mL diluted in running buffer at a flow rate of 5 μL/min contact time: 600 s, yielding a final response of ˜3000 RU. Example compounds were then serially diluted 1:1 in running buffer (10 mM HEPES, 150 mM NaCl, 0.05% T20, pH 7.5, 2% DMSO) from 30 uM to 937.5 nM and flowed over the active and reference surfaces from lowest concentration to greatest concentration in the single-cycle kinetics format, and then allowed to dissociate in running buffer for 7200 s, at 30 μL/min. Sensorgrams were solvent corrected, double-referenced, and the data fitted and analyzed in Biacore Insight Evaluation Software Version 3.0.11.15423.

[8] = test system: THP-1 cells; experiment: Compound mediated uptake of TNFα-pHrodo in THP-1 cells (flow cytometry); format: cell-based; parameters: key to Uptake in THP1 cells (run) 2 / Uptake in THP1 cells (run) 3 / Uptake in THP1 cells (run) 4: + = ΔMFI less than that of I-17; ++ = ΔMFI ≈ to that of I-17; +++ = ΔMFI greater than that of I-17; settings: ΔMFI compared with I-17, uptake at 10 μM
Procedure: THP-1 cells, a monocytic leukemia cell line that endogenously express folate receptor beta, were used as a model system to measure example compound stimulated uptake of in-house produced TNFα conjugated to the pH sensitive fluorescent dye pHrodo green (ThermoFisher Scientific #P35369).
THP-1 cells were maintained in RPMI (Gibco #61870143) with 10% v/v FBS (VWR #89510-188) with 2 mM L-alanyl-L-glutamine dipeptide, 100 units/ml penicillin and 100 μg/ml streptomycin (Gibco #15140148). Cells were pelleted, resuspended in folate-free RPMI (Gibco #27016021) and seeded at 50,000 cells per well of a 96 well plate. Example compound was added to each well as a log 2 dilution series ranging from 20 μM to 125 nM final concentration. Cells were incubated for 24 hrs and washed/resuspended in phosphate buffered saline (pH 7.4) with 1% w/v BSA. Uptake was measured using a Novocyte Advanteon Flow Cytometer (Agilent Technologies) with the […] and FITC detection configuration.

Kd [6] [nM]	Kd [7] [nM]	SMILES	New-uptake 10 nm-% Example 46 ([1]; 10 nM compound, relative to Example 46 as printed (I-92 = 1.00))	New-uptake 100 nM-% Example 46 ([1]; 100 nM compound, relative to Example 46 as printed (I-92 = 1.00))	IC50 [2] [nM]	IC50 [3] [nM]	uptake of TNFα compared the no compound control (DMSO) ([1]; 2 h)	EC50 ([1]; Homo sapiens, ΔMFI FOLR2 overexpressing vs WT THP-1 cells, 2 h) [nM]	Rmax [4] [RU]	kd [4] [s⁻¹]	Kd [4] [nM]	kon [4] [M⁻¹ s⁻¹]	TC 150 nM- tagless TNF Normalized [5] [%]	TC 300 nM- tagless TNF Normalized [5] [%]	TC 60 nM taggless TNF normalized ([5]; 60 nM untagged TNF) [%]	Uptake in THP1 cells (run) 3 ([8]; run 3)	Uptake in THP1 cells (run) 4 ([8]; run 4)
–	–	Cc1nc2cc(F)c(-c3cnc(N4CCN(C(=O)COCCn5cc(CN(CCO)CCOCCOCCOCCNC(=O)CC[C@H](NC(=O)c6ccc(NCc7cnc8nc(N)nc(O)c8n7)cc6)c6nn[nH]n6)nn5)CC4)nc3)nc2c(N[C@H](C)c2cc(C#N)ccc2F)c1Cl [Compound I-80, 4-(((2-amino-4-hydroxypteridin-6-yl)methyl)amino)-N—((S)-3-((1-(2-(2-(4-(5-(7-chloro-8-(((R)-1-(5-cyano-2-fluorophenyl)ethyl)amino)-3-fluoro-6-methyl-1,5-naphthyridin-2-yl)pyrimidin-2-yl)piperazin-1-yl)-2-oxoethoxy)ethyl)-1H-1,2,3-triazol-4-yl)methyl)-1-hydroxy-16-oxo-19-(2H-tetrazol-5-yl)-6,9,12-trioxa-3,15-diazanonadecan-19-yl)benzamide]	0.89	1.02	36	12	–	–	–	–	–	–	–	–	–	–	–
–	–	Cc1nc2cc(F)c(-c3cnc(N4CCN(C(=O)COCCOCCOCCOCCOCCOCCn5cc(CC[C@H](NC(=O)c6ccc(OCc7ccc8nc(N)nc(O)c8c7)cc6)C(=O)O)nn5)CC4)nc3)nc2c(N[C@H](C)c2cc(C#N)ccc2F)c1Cl [Compound I-87, (S)-2-(4-((2-amino-4-hydroxyquinazolin-6-yl)methoxy)benzamido)-4-(1-(20-(4-(5-(7-chloro-8-(((R)-1-(5-cyano-2-fluorophenyl)ethyl)amino)-3-fluoro-6-methyl-1,5-naphthyridin-2-yl)pyrimidin-2-yl)piperazin-1-yl)-20-oxo-3,6,9,12,15,18-hexaoxaicosyl)-1H-1,2,3-triazol-4-yl)butanoic acid]	–	–	22	8	dose-dependent uptake of TNFα	15.3	18.7	0.000692	0.035	1.97e+07	25.7	32.8	–	–	–
–	–	Cc1nc2cc(F)c(-c3cnc(N4CCN(C(=O)COCCOCCOCCOCCOCCOCCn5cc(CC[C@H](NC(=O)c6ccc(NCc7cnc8nc(N)nc(O)c8n7)cc6)C(=O)O)nn5)CC4)nc3)nc2c(N[C@H](C)c2cc(C#N)ccc2F)c1Cl [Compound I-92]	–	–	20	7.6	dose-dependent uptake of TNFα	–	17.1	8.7e-05	0.00867	1e+07	16.9	18.7	15.3	–	–
0.4	< 5000	Cc1nc2ccc(-c3cnc(OCCOCCn4cc(COCCOCCOCCOCCNC(=O)CC[C@H](NC(=O)c5ccc(NCc6cnc7nc(N)nc(O)c7n6)cc5)C(=O)O)nn4)nc3)cc2n1Cc1ccccc1OC(F)F [Compound I-24, (S)-18-(4-(((2-amino-4-hydroxypteridin-6-yl)methyl)amino)benzamido)-1-(1-(2-(2-((5-(1-(2-(difluoromethoxy)benzyl)-2-methyl-1H-benzo[d]imidazol-6-yl)pyrimidin-2-yl)oxy)ethoxy)ethyl)-1H-1,2,3-triazol-4-yl)-15-oxo-2,5,8,11-tetraoxa-14-azanonadecan-19-oic acid]	–	–	–	–	–	–	–	–	–	–	–	–	–	+	+
